The record followed here is article PMC11649397, “The study of halogen effect on the reactivity of the serine-targeting covalent warheads” (Frontiers in Chemistry, 2024).

For this experiment, the target named is T1, hCES1A (Homo sapiens, UniProt P23141).
T1 sequence (P23141 18-567): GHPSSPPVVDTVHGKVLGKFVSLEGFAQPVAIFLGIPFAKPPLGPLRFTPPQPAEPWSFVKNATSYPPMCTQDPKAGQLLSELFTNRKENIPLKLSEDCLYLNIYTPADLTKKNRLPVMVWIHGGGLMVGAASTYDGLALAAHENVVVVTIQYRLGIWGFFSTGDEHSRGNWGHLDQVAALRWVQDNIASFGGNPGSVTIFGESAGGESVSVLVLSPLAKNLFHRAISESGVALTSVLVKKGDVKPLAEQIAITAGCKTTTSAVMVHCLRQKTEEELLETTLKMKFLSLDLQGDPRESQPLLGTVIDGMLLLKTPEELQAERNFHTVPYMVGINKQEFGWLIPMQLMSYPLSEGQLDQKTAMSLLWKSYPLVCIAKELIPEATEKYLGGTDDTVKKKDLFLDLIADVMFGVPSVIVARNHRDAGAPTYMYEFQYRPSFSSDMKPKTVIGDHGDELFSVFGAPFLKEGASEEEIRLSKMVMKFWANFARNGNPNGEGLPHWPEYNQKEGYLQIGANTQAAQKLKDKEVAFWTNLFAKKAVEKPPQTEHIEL
Put plainly: Inhibition assay on hCES1A (bioluminogenic substrate NLMe). The note with it: for selective inhibitory activity on hCES1A: 10 μM, selectivity screening; for IC50: mean ± SD, n = 3; for anti-hCES1A effect in screening of the covalent fragment library: high-throughput screening, Figure 1. It is filed as biochemical. As to the method:
In this study, a known bioluminogenic probe substrate NLMe was used for human carboxylesterase 1 (hCES1A) inhibition assays. ([Wang et al., 2020]). In brief, the incubation mixture (0.1 mL) consisted of 0.1 M buffer PBS (PH 6.5), hCES1A (0.1 μg/mL, final concentration) and each test compound. […] After 20 min incubation, equal volume of LDR was added to stop reaction. The luminescence signals were monitored in the microplate reader (SpectraMax iD3Molecular Devices, Austria). […]
The household library of covalent fragments including D and F was from Organic Chemistry […]
Fig. S1. Partial fragment molecules of a household library targeting to serine. […]
Inhibition assay on hCES1A
In this study, a known bioluminogenic probe substrate NLMe was used for human carboxylesterase 1 (hCES1A) inhibition assays. 2 In brief, the incubation mixture (0.1 mL) consisted of 0.1 M buffer PBS (PH 6.5), hCES1A (0.1 μg/mL, final concentration) and each test compound. […]
After 20 min incubation, equal volume of LDR was added to stop reaction.

Where “and” joins values, the source holds several entries; their conditions need not be identical. Equal values may be shown once. Entries after “also recorded” stand apart in the source; their conditions may differ. Read-outs that look alike come from different tables or passages of the source.

Consider `O=C(c1ccccc1)C(F)(F)F` [F, 2,2,2-trifluoroacetophenone], for which the “selective inhibitory activity on hCES1A” value is listed as “decent selective inhibitory activities”; the “anti-hCES1A effect in screening of the covalent fragment library” value is “potent anti-hCES1A effects; also recorded: strong and selective inhibition against hCES1A”. Further, the IC50 (3 min incubation, read-out: hCES1A IC50 3 min) is 24.1 ± 1 nM. Moreover, the “time-dependent inhibition against hCES1A” value (3 min vs 33 min incubation) is given as “weak time-dependent inhibition”. The concentration for half-maximal inhibition (IC50) (33 min incubation, read-out: hCES1A IC50 33 min) was 11 nM and 11.1 nM. For the same compound, the “hCES1A IC50 Fold Increase” value (ratio of IC50 at 3 min to IC50 at 33 min) was 2 and 2.2.

With `O=S(=O)(F)c1ccc(Br)cc1` [D, 4-bromobenzenesulfonyl fluoride], the “selective inhibitory activity on hCES1A” value is “decent selective inhibitory activities”; the “anti-hCES1A effect in screening of the covalent fragment library” value was “potent anti-hCES1A effects; also recorded: strong and selective inhibition against hCES1A”. In addition, the “difference between IC50 values of hCES1A and hCES2A” value (hCES1A vs hCES2A) is recorded as “no statistically significant difference”.

What is called IC50 is the concentration that gives 50% inhibition.
